Data published in patent publication US12509431B2, “1,4-dihydroquinazolinone compounds and uses thereof” (Edgewise Therapeutics, Inc., priority 2022, dated 2025).

How the values were obtained:
Format in all cases: biochemical
Conditions in all cases: Table 8
[1] = biological target: T1, Porcine Ventricle myofibrils (left ventricle of Yucatan minipigs) (Sus scrofa, UniProt P79293); assay: Myofibril ATPase assay (PK/LDH NADH-coupled), ventricle myofibrils
T1 construct: Myofibrils from porcine cardiac muscle was isolated from the left ventricle of Yucatan minipigs; tissue Exemplar Genetics; host or cells: left ventricle of Yucatan minipigs
T1 sequence (P79293 whole entry): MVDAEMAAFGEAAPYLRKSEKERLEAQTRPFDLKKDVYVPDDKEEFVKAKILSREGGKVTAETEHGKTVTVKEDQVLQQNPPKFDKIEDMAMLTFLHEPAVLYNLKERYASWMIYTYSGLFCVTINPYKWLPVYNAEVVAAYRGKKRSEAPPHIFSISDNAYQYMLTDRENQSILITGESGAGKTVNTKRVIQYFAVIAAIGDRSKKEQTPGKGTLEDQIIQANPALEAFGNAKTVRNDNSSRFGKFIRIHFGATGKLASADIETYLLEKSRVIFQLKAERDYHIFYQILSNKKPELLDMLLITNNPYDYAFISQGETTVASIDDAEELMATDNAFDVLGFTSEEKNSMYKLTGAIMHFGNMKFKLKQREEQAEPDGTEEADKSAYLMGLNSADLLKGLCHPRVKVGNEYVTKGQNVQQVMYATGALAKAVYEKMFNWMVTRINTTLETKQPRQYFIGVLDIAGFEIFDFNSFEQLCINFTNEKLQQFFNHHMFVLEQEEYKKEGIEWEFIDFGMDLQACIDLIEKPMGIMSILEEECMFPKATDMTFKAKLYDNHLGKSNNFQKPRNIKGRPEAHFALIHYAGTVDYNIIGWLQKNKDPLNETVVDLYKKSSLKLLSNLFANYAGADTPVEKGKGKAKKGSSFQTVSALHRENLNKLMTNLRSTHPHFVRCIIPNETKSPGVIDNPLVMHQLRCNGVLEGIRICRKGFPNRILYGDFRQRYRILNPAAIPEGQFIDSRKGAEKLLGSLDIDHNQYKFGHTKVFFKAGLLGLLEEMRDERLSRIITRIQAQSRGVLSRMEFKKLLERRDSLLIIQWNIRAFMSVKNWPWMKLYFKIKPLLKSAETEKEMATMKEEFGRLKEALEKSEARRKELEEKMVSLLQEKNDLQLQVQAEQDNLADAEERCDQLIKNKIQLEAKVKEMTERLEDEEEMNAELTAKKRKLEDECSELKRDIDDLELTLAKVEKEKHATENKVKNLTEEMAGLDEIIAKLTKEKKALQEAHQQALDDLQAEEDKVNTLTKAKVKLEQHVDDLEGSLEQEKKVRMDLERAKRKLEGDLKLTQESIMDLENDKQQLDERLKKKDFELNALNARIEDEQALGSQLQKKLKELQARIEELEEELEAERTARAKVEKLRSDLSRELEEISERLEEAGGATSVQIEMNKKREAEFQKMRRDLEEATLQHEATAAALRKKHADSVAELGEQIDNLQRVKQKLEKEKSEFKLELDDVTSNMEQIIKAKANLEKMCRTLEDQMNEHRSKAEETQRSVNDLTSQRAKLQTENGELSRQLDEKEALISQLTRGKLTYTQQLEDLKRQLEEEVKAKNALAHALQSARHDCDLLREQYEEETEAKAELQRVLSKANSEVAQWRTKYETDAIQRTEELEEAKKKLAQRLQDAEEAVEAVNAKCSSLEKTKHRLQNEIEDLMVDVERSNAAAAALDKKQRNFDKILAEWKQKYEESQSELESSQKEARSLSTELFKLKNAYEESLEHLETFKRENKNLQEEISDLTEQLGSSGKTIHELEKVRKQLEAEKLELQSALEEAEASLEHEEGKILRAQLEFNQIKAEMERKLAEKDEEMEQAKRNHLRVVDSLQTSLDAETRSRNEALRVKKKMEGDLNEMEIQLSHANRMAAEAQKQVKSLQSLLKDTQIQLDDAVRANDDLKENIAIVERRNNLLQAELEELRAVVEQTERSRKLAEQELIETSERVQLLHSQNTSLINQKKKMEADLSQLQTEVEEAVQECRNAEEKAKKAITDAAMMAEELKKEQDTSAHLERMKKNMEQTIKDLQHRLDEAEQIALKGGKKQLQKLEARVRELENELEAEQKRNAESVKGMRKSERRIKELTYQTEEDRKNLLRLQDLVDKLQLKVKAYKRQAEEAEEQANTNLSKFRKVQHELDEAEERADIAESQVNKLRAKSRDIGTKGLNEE
Method in brief: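 NADH depletion (A340) coupled through pyruvate kinase/lactate dehydrogenase reports ATPase rate of porcine left-ventricle myofibrils over 75 min kinetic reads. Regression slopes, vehicle-normalized, fitted by 4-parameter logistic give EC25 and, where available, EC50.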

[2] = system: Rabbit Skeletal myofibrils (rabbit psoas muscle); assay: Myofibril ATPase assay (PK/LDH NADH-coupled), skeletal myofibrils
Method in brief: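 ATPase rate taken as linear-regression slope of A340 (NADH depletion through PK/LDH coupling) over a 75 min kinetic read, with psoas-derived rabbit skeletal myofibrils at pH 7.0. Four-parameter fits of vehicle-normalized activity give EC25 and, where reached, EC50.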

Porcine Atria myofibrils = assay: Myofibril ATPase assay (PK/LDH NADH-coupled), atria myofibrils
Method in brief: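 Values are EC25% (and, for inhibitors, EC50%) from 4-parameter logistic fits of activity normalized to vehicle wells. Rates came from linear regression of 340 nm kinetic reads (every 1.5-2 min, 75 min) of NADH-coupled ATP turnover by porcine atria myofibrils.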

Porcine Ventricle IC25 [1] | Rabbit Psoas IC25 [2] | Porcine Atria IC25 (Porcine Atria myofibrils) | SMILES
51.9 nM | 21.4 nM | 40 nM | Cc1cc(C#N)ncc1[C@@H](C)NC(=O)CN1Cc2c(ccc(F)c2F)NC1=O [Compound B83]
28590 nM | 4582 nM | 390 nM | C[C@@H](NC(=O)CN1Cc2c(ccc(F)c2F)NC1=O)c1nc(-c2ccc(F)cn2)no1 [Compound B85]
100000 nM | 100000 nM | 100000 nM | C[C@H](NC(=O)CN1Cc2c(ccc(F)c2F)NC1=O)c1nc(-c2ccc(F)cn2)no1 [Compound B86]
2339 nM | 100000 nM | 460 nM | O=C(CN1Cc2c(ccc(F)c2F)NC1=O)N[C@H]1COc2ccc(F)cc2C1 [Compound B88]
246.9 nM | 78.47 nM | 70 nM | N#Cc1cnc2c(c1)CC[C@H]2NC(=O)CN1Cc2c(ccc(F)c2F)NC1=O [Compound B89, N-[(7R)-3-Cyano-5H,6H,7H-cyclopenta[b]pyridin-7-yl]-2-(5,6-difluoro-2-oxo-1,4-dihydroquinazolin-3-yl)acetamide]
100000 nM | 100000 nM | 10980 nM | N#Cc1cnc2c(c1)CC[C@@H]2NC(=O)CN1Cc2c(ccc(F)c2F)NC1=O [Compound B90]
783 nM | 391.3 nM | 140 nM | C[C@@H](NC(=O)CN1Cc2c(ccc(F)c2F)NC1=O)c1cnc(C#N)cn1 [Compound B91]
51.26 nM | 19.09 nM | 30 nM | C[C@H](NC(=O)CN1Cc2c(ccc(F)c2F)NC1=O)c1cnc(C#N)cn1 [Compound B92]
5574 nM | 11450 nM | 1260 nM | C[C@@H](NC(=O)CN1Cc2c(ccc(F)c2F)NC1=O)c1ccc(Cl)cn1 [Compound B93]
543.8 nM | 129.4 nM | 90 nM | C[C@H](NC(=O)CN1Cc2c(ccc(F)c2F)NC1=O)c1ccc(Cl)cn1 [Compound B94]
100000 nM | 100000 nM | 1560 nM | C[C@@H](NC(=O)CN1Cc2c(ccc(F)c2F)NC1=O)c1nnc(-c2ccccc2F)s1 [Compound B95]
100000 nM | 21880 nM | 1910 nM | C[C@H](NC(=O)CN1Cc2c(ccc(F)c2F)NC1=O)c1nnc(-c2ccccc2F)s1 [Compound B96]
4796 nM | 8892 nM | 1430 nM | C[C@@H](NC(=O)CN1Cc2c(ccc(F)c2F)NC1=O)c1nnc2c(Cl)cc(C(F)(F)F)cn12 [Compound B97]
72380 nM | 93470 nM | 100000 nM | C[C@H](NC(=O)CN1Cc2c(ccc(F)c2F)NC1=O)c1nnc2c(Cl)cc(C(F)(F)F)cn12 [Compound B98]
100000 nM | 100000 nM | 700 nM | C[C@@H](NC(=O)CN1Cc2c(ccc(F)c2F)NC1=O)c1ccncc1F [Compound B99]
740.9 nM | 124.6 nM | 30 nM | C[C@H](NC(=O)CN1Cc2c(ccc(F)c2F)NC1=O)c1ccncc1F [Compound B100]
575.9 nM | 1059 nM | 150 nM | O=C(CN1Cc2c(ccc(F)c2F)NC1=O)N[C@@H]1COc2c(F)cc(F)cc2C1 [Compound B101]
6262 nM | 7621 nM | 100 nM | O=C(CN1Cc2c(ccc(F)c2F)NC1=O)N[C@H]1COc2c(F)cc(F)cc2C1 [Compound B102]
1132 nM | 426 nM | 30 nM | C[C@@H](NC(=O)CN1Cc2c(ccc(F)c2F)NC1=O)c1c(F)cncc1F [Compound B103]
100000 nM | 100000 nM | 2790 nM | C[C@H](NC(=O)CN1Cc2c(ccc(F)c2F)NC1=O)c1c(F)cncc1F [Compound B104]
6381 nM | 4205 nM | 110 nM | C[C@@H](NC(=O)CN1Cc2c(ccc(F)c2F)NC1=O)c1ncc(C#N)cn1 [Compound B105]

Porcine Ventricle IC25 [1] | Rabbit Psoas IC25 [2] | Porcine Atria IC25 (Porcine Atria myofibrils) | SMILES
476.5 nM | 302.8 nM | 90 nM | C[C@H](NC(=O)CN1Cc2c(ccc(F)c2F)NC1=O)c1ncc(C#N)cn1 [Compound B106]
100000 nM | 100000 nM | 100000 nM | C[C@@H](NC(=O)CN1Cc2c(ccc(F)c2F)NC1=O)c1ccc(C(F)(F)F)cn1 [Compound B107]
3587 nM | 1400 nM | 460 nM | C[C@H](NC(=O)CN1Cc2c(ccc(F)c2F)NC1=O)c1ccc(C(F)(F)F)cn1 [Compound B108]
100000 nM | 13900 nM | 12190 nM | C[C@@H](NC(=O)CN1Cc2c(ccc(F)c2F)NC1=O)c1ncncc1F [Compound B109]
559.5 nM | 55.8 nM | 40 nM | C[C@H](NC(=O)CN1Cc2c(ccc(F)c2F)NC1=O)c1ncncc1F [Compound B110]
100000 nM | 564 nM | 100000 nM | C[C@@H](NC(=O)CN1Cc2c(ccc(F)c2C#N)NC1=O)c1ccc(C#N)cn1 [Compound B111]
2318 nM | 79 nM | 1510 nM | C[C@H](NC(=O)CN1Cc2c(ccc(F)c2C#N)NC1=O)c1ccc(C#N)cn1 [Compound B112]
233 nM | 90.89 nM | 160 nM | C[C@@H](NC(=O)CN1Cc2c(F)cccc2NC1=O)c1ccc(C#N)cc1F [Compound B113]
167.3 nM | 20.8 nM | 120 nM | C[C@H](NC(=O)CN1Cc2c(F)cccc2NC1=O)c1ccc(C#N)cc1F [Compound B114]
100000 nM | 100000 nM | 100000 nM | C[C@@H](NC(=O)CN1Cc2c(C#N)cccc2NC1=O)c1ccc(C#N)cn1 [Compound B115]
672.1 nM | 74.3 nM | 220 nM | C[C@H](NC(=O)CN1Cc2c(C#N)cccc2NC1=O)c1ccc(C#N)cn1 [Compound B116, 2-(5-Cyano-2-oxo-1,4-dihydroquinazolin-3-yl)-N-[(1S)-1-(5-cyanopyridin-2-yl)ethyl]acetamide]
1967 nM | 236.6 nM | 150 nM | N#Cc1cc(F)c2c(c1)OC[C@H]2NC(=O)CN1Cc2c(ccc(F)c2C#N)NC1=O [Compound B117]
110 nM | 13.6 nM | 70 nM | N#Cc1cc(F)c2c(c1)OC[C@@H]2NC(=O)CN1Cc2c(ccc(F)c2C#N)NC1=O [Compound B118]
166.5 nM | 67.7 nM | 120 nM | N#Cc1ccc2c(c1)C1(CC1)N(CC(=O)N[C@@H]1COc3cc(F)cc(F)c31)C(=O)N2 [Compound B121]
100000 nM | 100000 nM | 1310 nM | N#Cc1ccc2c(c1)C1(CC1)N(CC(=O)N[C@H]1COc3cc(F)cc(F)c31)C(=O)N2 [Compound B122]
1870 nM | 326.2 nM | 360 nM | N#Cc1cc(F)c2c(c1)OC[C@@H]2NC(=O)CN1Cc2c(ccc(F)c2F)NC1=O [Compound B124]
100000 nM | 1552 nM | 1620 nM | C[C@@H](NC(=O)CN1Cc2c(C#N)cccc2NC1=O)c1ncc(C#N)cc1F [Compound B125]
346.1 nM | 40.06 nM | 70 nM | C[C@H](NC(=O)CN1Cc2c(C#N)cccc2NC1=O)c1ncc(C#N)cc1F [Compound B126]
100000 nM | 3992 nM | 260 nM | C[C@@H](NC(=O)CN1Cc2c(ccc(C#N)c2F)NC1=O)c1ccc(C#N)cc1F [Compound B129]
100000 nM | 345.6 nM | 100000 nM | C[C@@H](NC(=O)CN1Cc2c(ccc(F)c2C#N)NC1=O)c1ncc(C#N)cc1F [Compound B131]
171.5 nM | 31.3 nM | 80 nM | C[C@H](NC(=O)CN1Cc2c(ccc(F)c2C#N)NC1=O)c1ncc(C#N)cc1F [Compound B132]
